Data published in patent publication US20090247559A1 (Exelixis, Inc., priority 2007, published 2009).
Structures can show the parent of a compound that is named as a salt. Where two headings read alike, the source gives them in different places.

Columns and labels:
[1] = molecular target: CDC7 (Homo sapiens, UniProt O00311); assay: CDC7 inhibition, biochemical chemiluminescence assay (Kinase Glo, IC50 determination)
Outline: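 CDC7 enzyme preincubated with compound 10 min at ambient temperature, then ATP mix in Tris Base added; reaction 90 min at 24-27 °C. Remaining ATP quantified by Kinase Glo luminescence to give IC50.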

[2] = molecular target: PIM (PIM-1, PIM-2, and/or PIM-3); assay: PIM-1, PIM-2 and PIM-3 inhibition, biochemical chemiluminescence assays (Kinase Glo, IC50 determination); conditions: Table 1 activity class; PIM refers to PIM-1, PIM-2, and/or PIM-3; read-out: PIM IC50 (Activity B)
[3] = molecular target: CK2 (Homo sapiens, UniProt P68400); assay: CK2 inhibition, biochemical chemiluminescence holoenzyme assay (Kinase Glo, IC50 determination); conditions: Table 1 activity class; symbol given only if active; read-out: CK2 IC50 (Activity C)
Chain of CK2 (P68400 whole entry): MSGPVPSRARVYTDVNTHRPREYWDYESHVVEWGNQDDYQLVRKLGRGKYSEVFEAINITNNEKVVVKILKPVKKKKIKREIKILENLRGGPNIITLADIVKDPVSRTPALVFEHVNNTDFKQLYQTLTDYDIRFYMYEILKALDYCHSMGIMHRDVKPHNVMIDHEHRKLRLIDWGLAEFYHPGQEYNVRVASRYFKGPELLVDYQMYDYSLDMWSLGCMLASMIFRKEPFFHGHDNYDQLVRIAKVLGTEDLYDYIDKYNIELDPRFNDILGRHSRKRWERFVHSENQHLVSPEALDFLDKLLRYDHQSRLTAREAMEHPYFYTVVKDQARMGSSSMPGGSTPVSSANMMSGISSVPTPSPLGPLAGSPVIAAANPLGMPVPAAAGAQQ
Chain of CK2 (P67870 whole entry partner): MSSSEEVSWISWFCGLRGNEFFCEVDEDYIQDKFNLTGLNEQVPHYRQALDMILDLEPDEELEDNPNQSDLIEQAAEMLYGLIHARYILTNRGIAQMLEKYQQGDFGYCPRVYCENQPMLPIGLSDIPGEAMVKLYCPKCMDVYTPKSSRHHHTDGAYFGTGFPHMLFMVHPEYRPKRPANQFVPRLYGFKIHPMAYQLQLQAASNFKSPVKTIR
Outline: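 Holoenzyme CK2 assay; compounds pre-incubated with substrate and enzyme, then reacted 150 min at 24-27° C. Remaining ATP measured as luminescence with Kinase Glo, and IC50 derived from the signal.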

[4] = Table 1 activity class, symbol given only if active, read-out: CDC7 IC50 (Activity A)
[5] = compounds in Table 1, read-out: CDC7 IC50 value

Chain of CDC7 (O00311 whole entry): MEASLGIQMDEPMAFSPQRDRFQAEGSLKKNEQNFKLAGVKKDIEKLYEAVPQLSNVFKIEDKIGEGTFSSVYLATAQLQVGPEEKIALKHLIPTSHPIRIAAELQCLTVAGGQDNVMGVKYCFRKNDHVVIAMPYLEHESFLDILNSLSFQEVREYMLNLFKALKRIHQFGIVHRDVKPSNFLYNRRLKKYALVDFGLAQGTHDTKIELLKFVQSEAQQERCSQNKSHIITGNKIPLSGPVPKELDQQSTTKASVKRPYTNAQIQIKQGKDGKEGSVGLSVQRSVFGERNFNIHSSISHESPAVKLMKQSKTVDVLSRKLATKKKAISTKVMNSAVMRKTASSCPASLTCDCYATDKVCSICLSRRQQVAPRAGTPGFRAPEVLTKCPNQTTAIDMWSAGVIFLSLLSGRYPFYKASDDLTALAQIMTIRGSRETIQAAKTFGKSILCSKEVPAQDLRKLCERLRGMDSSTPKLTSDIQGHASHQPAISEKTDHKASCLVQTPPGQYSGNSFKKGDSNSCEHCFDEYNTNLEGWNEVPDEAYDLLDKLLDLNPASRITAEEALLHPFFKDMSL
Chain of CDC7 (Q9UBU7 whole entry partner): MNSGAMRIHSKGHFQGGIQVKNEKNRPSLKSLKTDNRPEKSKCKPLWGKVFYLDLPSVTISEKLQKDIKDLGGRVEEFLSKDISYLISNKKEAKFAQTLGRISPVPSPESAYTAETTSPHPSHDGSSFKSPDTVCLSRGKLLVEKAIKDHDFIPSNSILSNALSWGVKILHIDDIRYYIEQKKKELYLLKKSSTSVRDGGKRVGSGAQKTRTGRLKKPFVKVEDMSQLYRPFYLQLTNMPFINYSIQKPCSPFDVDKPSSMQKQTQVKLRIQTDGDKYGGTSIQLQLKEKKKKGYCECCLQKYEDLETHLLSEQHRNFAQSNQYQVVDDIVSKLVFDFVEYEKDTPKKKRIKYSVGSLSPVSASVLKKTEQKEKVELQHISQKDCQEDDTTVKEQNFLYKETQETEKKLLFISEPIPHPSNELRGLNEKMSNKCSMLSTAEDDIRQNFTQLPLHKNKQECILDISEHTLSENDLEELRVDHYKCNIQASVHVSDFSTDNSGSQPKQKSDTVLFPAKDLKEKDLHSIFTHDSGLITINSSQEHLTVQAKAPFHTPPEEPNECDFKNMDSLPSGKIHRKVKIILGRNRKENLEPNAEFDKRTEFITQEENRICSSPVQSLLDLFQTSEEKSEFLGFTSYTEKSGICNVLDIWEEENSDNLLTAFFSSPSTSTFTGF

| SMILES | IC50 [1, 4] | IC50 [1, 5] | IC50 [2] | IC50 [3] | IC50 ([1]; CDC7 IC50 (Activity A), Table 1 activity class, symbol given only if active) | IC50 ([1]; CDC7 IC50 value, compounds in Table 1) |
| --- | --- | --- | --- | --- | --- | --- |
| CN1CCC[C@H]1c1nc2c(oc3ccc(Br)cc32)c(=O)[nH]1 [Compound 527, 8-Bromo-2-[(2S)-1-methylpyrrolidin-2-yl][1]benzofuro[3,2-d]pyrimidin-4(3H)-one hydrochloride] | < 10 µM | < 0.1 µM | < 10 µM | < 10 µM |  |  |
| O=c1[nH]c([C@@H]2C[C@H](O)CN2)nc2c1oc1ccc(Cl)cc12 [Compound 528, 8-chloro-2-[(2S,4S)-4-hydroxypyrrolidin-2-yl][1]benzofuro[3,2-d]pyrimidin-4(3H)-one] | < 10 µM | < 0.1 µM | < 10 µM | < 10 µM |  |  |
| O=c1[nH]c([C@@H]2CC3CCCCC3N2)nc2c1oc1ccc(Cl)cc12 (stereo partly drawn) [Compound 529, 8-chloro-2-[(2S)-octahydro-1H-indol-2-yl][1]benzofuro[3,2-d]pyrimidin-4(3H)-one] |  |  | < 10 µM | < 10 µM | < 10 µM | < 0.1 µM |
| COc1ccc2oc3c(=O)[nH]c([C@@H]4CC(F)(F)CN4)nc3c2c1 [Compound 531, 2-[(2S)-4,4-difluoropyrrolidin-2-yl]-8-(methyloxy)[1]benzofuro[3,2-d]pyrimidin-4(3H)-one] | < 10 µM | < 0.1 µM | < 10 µM | < 10 µM |  |  |
| COc1ccc2oc3c(=O)[nH]c([C@@H]4C[C@@H](F)CN4)nc3c2c1 [Compound 532, 2-[(2S,4R)-4-fluoropyrrolidin-2-yl]-8-(methyloxy)[1]benzofuro[3,2-d]pyrimidin-4(3H)-one] | < 10 µM | < 0.1 µM | < 10 µM | < 10 µM |  |  |
| C[C@H](N)c1nc2c(oc3ccc(Cl)cc32)c(=O)[nH]1 [Compound 533, 2-[(1S)-1-aminoethyl]-8-chloro[1]benzofuro[3,2-d]pyrimidin-4(3H)-one] | < 10 µM | < 0.1 µM | < 10 µM | < 10 µM |  |  |
| O=c1[nH]c(C2CCCCN2)nc2c1oc1ccc(Br)cc12 (stereo not shown) [Compound 534, 8-Bromo-2-piperidin-2-yl[1]benzofuro[3,2-d]pyrimidin-4(3H)-one hydrochloride] | < 10 µM | < 0.1 µM | < 10 µM | < 10 µM |  |  |

Now from value to compound, other results behind:

| IC50 [1, 4] | IC50 [1, 5] | IC50 [2] | IC50 [3] | SMILES | IC50 ([1]; CDC7 IC50 (Activity A), Table 1 activity class, symbol given only if active) | IC50 ([1]; CDC7 IC50 value, compounds in Table 1) |
| --- | --- | --- | --- | --- | --- | --- |
| < 10 µM |  | < 10 µM | < 10 µM | NC(Cc1cccs1)c1nc2c(oc3ccc(Br)cc32)c(=O)[nH]1 (stereo not shown) [Compound 538, 2-[1-amino-2-(2-thienyl)ethyl]-8-bromo[1]benzofuro[3,2-d]pyrimidin-4(3H)-one] |  |  |
| < 10 µM | < 0.1 µM | < 10 µM | < 10 µM | CC(C)[C@H](N)c1nc2c(oc3ccc(Br)cc32)c(=O)[nH]1 [Compound 540, 2-[(1S)-1-amino-2-methylpropyl]-8-bromo[1]benzofuro[3,2-d]pyrimidin-4(3H)-one] |  |  |
| < 10 µM | < 0.1 µM | < 10 µM | < 10 µM | NC1(c2nc3c(oc4ccc(Br)cc43)c(=O)[nH]2)CCCC1 [Compound 543, 2-(1-aminocyclopentyl)-8-bromo[1]benzofuro[3,2-d]pyrimidin-4(3H)-one] |  |  |
| < 10 µM | < 0.1 µM | < 10 µM | < 10 µM | NC1(c2nc3c(oc4ccc(Br)cc43)c(=O)[nH]2)CCC1 [Compound 544, 2-(1-aminocyclobutyl)-8-bromo[1]benzofuro[3,2-d]pyrimidin-4(3H)-one] |  |  |
